In patent publication US20250205344A1, “2,4-DIOXOTETRAHYDROPYRIMIDINYL DERATIVES AS DEGRONS IN PROTACS” (GLAXOSMITHKLINE INTELLECTUAL PROPERTY DEVELOPMENT LIMITED, priority 2022, published 2025):
Structures can show the parent of a compound that is named as a salt.

Target: T1, Androgen Receptor (Homo sapiens, UniProt P10275, T878A)
T1 construct: the AR gene was modified, using CRISPR/Cas9 editing, so the expressed AR protein included an 11 amino acid HiBiT tag; endogenous in cells; host or cells: clonal LnCaP-derived line, AR gene edited by CRISPR/Cas9
Experiment: Androgen Receptor Degradation Assay (Nano-Glo HiBiT)
Type: cell-based
Conditions: 18 h, HiBiT-tagged AR in human LnCaP cells; for Dmax: LNCaP, read-out: mean asymptote max
How it was run: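 LnCaP cells with CRISPR-knocked-in N-terminal HiBiT-tagged AR (10,000/well) treated 18 h at 37 °C with PROTACs over 11 threefold concentrations; lytic HiBiT luminescence normalised to DMSO (0%) and cell-free (100%) controls. Relative DC50 = 4-parameter fit inflection; absolute DC50 = 50% degradation interpolation; Dmax = maximum observed degradation.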

T1 sequence (P10275 whole entry T878A): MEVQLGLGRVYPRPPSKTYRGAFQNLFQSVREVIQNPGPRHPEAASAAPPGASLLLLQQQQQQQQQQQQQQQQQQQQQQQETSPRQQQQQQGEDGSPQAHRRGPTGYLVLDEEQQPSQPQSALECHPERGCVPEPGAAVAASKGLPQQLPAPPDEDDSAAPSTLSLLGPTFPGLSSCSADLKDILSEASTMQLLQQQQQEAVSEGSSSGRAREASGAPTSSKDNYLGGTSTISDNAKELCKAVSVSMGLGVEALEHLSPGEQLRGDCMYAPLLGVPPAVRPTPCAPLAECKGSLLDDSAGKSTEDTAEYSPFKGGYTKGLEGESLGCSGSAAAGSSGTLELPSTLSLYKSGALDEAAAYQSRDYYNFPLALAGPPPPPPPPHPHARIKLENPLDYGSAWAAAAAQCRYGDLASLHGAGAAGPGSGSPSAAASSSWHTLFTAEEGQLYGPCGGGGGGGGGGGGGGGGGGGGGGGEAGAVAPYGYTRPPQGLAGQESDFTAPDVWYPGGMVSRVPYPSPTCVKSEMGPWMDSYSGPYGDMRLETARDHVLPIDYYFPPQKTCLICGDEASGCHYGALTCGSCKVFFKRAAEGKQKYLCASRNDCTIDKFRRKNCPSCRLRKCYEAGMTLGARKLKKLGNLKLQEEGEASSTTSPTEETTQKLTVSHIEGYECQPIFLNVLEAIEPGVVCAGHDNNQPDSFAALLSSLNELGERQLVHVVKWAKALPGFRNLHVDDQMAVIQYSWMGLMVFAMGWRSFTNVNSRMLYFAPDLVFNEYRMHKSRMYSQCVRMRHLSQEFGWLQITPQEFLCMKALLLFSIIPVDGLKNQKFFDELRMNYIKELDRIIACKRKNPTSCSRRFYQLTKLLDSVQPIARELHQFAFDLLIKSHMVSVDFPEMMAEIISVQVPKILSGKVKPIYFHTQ
T1 sequence (Q96SW2 whole entry partner): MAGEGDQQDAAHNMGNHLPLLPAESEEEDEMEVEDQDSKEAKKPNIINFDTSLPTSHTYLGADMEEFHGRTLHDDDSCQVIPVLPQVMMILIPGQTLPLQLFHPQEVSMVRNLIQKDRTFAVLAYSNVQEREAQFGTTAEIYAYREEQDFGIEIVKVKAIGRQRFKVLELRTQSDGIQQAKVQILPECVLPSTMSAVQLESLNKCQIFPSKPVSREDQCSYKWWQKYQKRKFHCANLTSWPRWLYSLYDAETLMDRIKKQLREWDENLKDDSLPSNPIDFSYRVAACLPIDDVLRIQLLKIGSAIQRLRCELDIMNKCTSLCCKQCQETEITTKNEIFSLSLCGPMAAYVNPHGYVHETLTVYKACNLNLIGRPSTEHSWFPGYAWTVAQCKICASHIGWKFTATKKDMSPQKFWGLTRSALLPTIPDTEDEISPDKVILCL
T1 sequence (Q16531 whole entry partner): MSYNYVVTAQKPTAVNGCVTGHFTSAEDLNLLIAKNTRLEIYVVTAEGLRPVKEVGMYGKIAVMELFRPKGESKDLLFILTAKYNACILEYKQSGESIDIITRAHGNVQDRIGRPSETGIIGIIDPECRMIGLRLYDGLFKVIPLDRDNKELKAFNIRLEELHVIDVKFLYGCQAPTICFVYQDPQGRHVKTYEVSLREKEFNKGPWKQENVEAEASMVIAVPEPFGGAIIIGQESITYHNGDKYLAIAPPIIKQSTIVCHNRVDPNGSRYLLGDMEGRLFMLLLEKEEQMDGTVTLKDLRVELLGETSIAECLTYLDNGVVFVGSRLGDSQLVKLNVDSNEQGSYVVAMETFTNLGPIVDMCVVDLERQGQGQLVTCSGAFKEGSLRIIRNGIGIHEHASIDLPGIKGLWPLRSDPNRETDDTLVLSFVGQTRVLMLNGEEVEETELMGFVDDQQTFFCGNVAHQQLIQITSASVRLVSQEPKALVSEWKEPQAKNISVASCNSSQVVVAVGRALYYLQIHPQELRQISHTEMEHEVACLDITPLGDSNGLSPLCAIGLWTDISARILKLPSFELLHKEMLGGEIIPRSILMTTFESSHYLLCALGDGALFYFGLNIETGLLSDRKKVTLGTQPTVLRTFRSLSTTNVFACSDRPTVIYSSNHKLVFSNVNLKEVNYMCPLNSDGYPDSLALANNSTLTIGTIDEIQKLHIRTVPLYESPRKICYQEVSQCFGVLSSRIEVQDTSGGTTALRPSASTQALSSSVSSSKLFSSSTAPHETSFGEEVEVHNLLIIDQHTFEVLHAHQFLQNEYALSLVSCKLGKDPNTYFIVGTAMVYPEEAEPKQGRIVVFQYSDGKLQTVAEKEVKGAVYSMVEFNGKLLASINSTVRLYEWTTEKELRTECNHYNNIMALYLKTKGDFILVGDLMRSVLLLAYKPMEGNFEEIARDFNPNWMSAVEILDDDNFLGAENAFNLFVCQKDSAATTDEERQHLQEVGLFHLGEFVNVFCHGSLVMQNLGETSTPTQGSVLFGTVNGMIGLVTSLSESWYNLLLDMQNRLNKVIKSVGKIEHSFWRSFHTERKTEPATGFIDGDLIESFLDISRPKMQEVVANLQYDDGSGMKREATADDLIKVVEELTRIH

SMILES	Dmax	mean relative pDC50
CC1(C)C(=O)N(c2ccc(C#N)c(C(F)(F)F)c2)C(=S)N1c1ccc(OCCCN2CCC(n3ccc4c(N5CCC(=O)NC5=O)cccc43)CC2)cc1 [EAR103, 4-(3-(4-(3-(4-(4-(2,4-Dioxotetrahydropyrimidin-1(2H)-yl)-1H-indol-1-yl)piperidin-1-yl)propoxy)phenyl)-4,4-dimethyl-5-oxo-2-thioxoimidazolidin-1-yl)-2-(trifluoromethyl)benzonitrile formate]	≥ 50%	
CC1(C)C(=O)N(c2ccc(C#N)c(C(F)(F)F)c2)C(=S)N1c1ccc(OCCCN2CCC(n3ccc4c(N5CCC(=O)NC5=O)cncc43)CC2)cc1 [EAR104, 4-(3-(4-(3-(4-(4-(2,4-Dioxotetrahydropyrimidin-1(2H)-yl)-1H-pyrrolo[2,3-c]pyridin-1-yl)piperidin-1-yl)propoxy)phenyl)-4,4-dimethyl-5-oxo-2-thioxoimidazolidin-1-yl)-2-(trifluoromethyl)benzonitrile]	≥ 50%	
C[C@@H]1CN(c2ccc(C#N)c(Cl)c2)[C@@H](C)CN1C(=O)Nc1cnc(N2CCC(CN3CCC(n4ccc5c(N6CCC(=O)NC6=O)cncc54)CC3)CC2)nc1 [EAR106, (2R,5S)-4-(3-Chloro-4-cyanophenyl)-N-(2-(4-((4-(4-(2,4-dioxotetrahydropyrimidin-1(2H)-yl)-1H-pyrrolo[2,3-c]pyridin-1-yl)piperidin-1-yl)methyl)piperidin-1-yl)pyrimidin-5-yl)-2,5-dimethylpiperazine-1-carboxamide]	≥ 50%	
CC(C)n1ccc2c(N3CCC(=O)NC3=O)cc(C(=O)N3CCN(CC4CCN(c5ncc(NC(=O)N6C[C@H](C)N(c7ccc(C#N)c(Cl)c7)C[C@H]6C)cn5)CC4)CC3)cc21 [EAR107, (2R,5S)-4-(3-Chloro-4-cyanophenyl)-N-(2-(4-((4-(4-(2,4-dioxotetrahydropyrimidin-1(2H)-yl)-1-isopropyl-1H-indole-6-carbonyl)piperazin-1-yl)methyl)piperidin-1-yl)pyrimidin-5-yl)-2,5-dimethylpiperazine-1-carboxamide]	≥ 50%	
C[C@@H]1CN(c2ccc(C#N)c(Cl)c2)[C@@H](C)CN1C(=O)Nc1ccc(N2CCC(CN3CCC(n4ccc5c(N6CCC(=O)NC6=O)cccc54)CC3)CC2)nc1 [EAR108, (2R,5S)-4-(3-Chloro-4-cyanophenyl)-N-(6-(4-((4-(4-(2,4-dioxotetrahydropyrimidin-1(2H)-yl)-1H-indol-1-yl)piperidin-1-yl)methyl)piperidin-1-yl)pyridin-3-yl)-2,5-dimethylpiperazine-1-carboxamide]	≥ 50%	
C[C@@H]1CN(c2ccc(C#N)c(Cl)c2)[C@@H](C)CN1C(=O)Nc1ccc(OCCCCN2CCC(n3ccc4c(N5CCC(=O)NC5=O)cccc43)CC2)nc1 [EAR109, (2R,5S)-4-(3-Chloro-4-cyanophenyl)-N-(6-(4-(4-(4-(2,4-dioxotetrahydropyrimidin-1(2H)-yl)-1H-indol-1-yl)piperidin-1-yl)butoxy)pyridin-3-yl)-2,5-dimethylpiperazine-1-carboxamide]	≥ 50%	
C[C@@H]1CN(c2ccc(C#N)c(Cl)c2)[C@@H](C)CN1C(=O)Nc1ccc(OCCCCN2CCC(n3ccc4c(N5CCC(=O)NC5=O)cncc43)CC2)nc1 [EAR111, (2R,5S)-4-(3-Chloro-4-cyanophenyl)-N-(6-(4-(4-(4-(2,4-dioxotetrahydropyrimidin-1(2H)-yl)-1H-pyrrolo[2,3-c]pyridin-1-yl)piperidin-1-yl)butoxy)pyridin-3-yl)-2,5-dimethylpiperazine-1-carboxamide]	≥ 50%	
C[C@@H]1CN(C(=O)Nc2cnc(N3CCC(CN4CCC(n5ccc6c(N7CCC(=O)NC7=O)cccc65)CC4)CC3)nc2)[C@@H](C)CN1c1ccc(C#N)c(Cl)c1 [EAR116, (2S,5R)-4-(3-Chloro-4-cyanophenyl)-N-(2-(4-((4-(4-(2,4-dioxotetrahydropyrimidin-1(2H)-yl)-1H-indol-1-yl)piperidin-1-yl)methyl)piperidin-1-yl)pyrimidin-5-yl)-2,5-dimethylpiperazine-1-carboxamide]	≥ 50%	
C[C@@H]1CN(c2ccc(C#N)c(Cl)c2)[C@@H](C)CN1C(=O)Nc1ccc(N2CCC(CCN3CCC(n4ccc5c(N6CCC(=O)NC6=O)cccc54)CC3)CC2)nc1 [EAR117, (2R,5S)-4-(3-Chloro-4-cyanopheny)-N-(6-(4-(2-(4-(4-(2,4-dioxotetrahydropyrimidin-1(2H)-yl)-1H-indol-1-yl)piperidin-1-yl)ethyl)piperidin-1-yl)pyridin-3-yl)-2,5-dimethylpiperazine-1-carboxamide]	≥ 50%	
N#Cc1ccc(O[C@H]2CC[C@H](NC(=O)c3ccc(N4CCC(CN5CCC(n6ccc7c(N8CCC(=O)NC8=O)ncnc76)CC5)CC4)nn3)CC2)cc1Cl [EAR119, N-((1r,4r)-4-(3-Chloro-4-cyanophenoxy)cyclohexyl)-6-(4-((4-(4-(2,4-dioxotetrahydropyrimidin-1(2H)-yl)-7H-pyrrolo[2,3-d]pyrimidin-7-yl)piperidin-1-yl)methyl)piperidin-1-yl)pyridazine-3-carboxamide]	≥ 50%	
C[C@@H]1CN(C(=O)Nc2ccc(OCCCCN3CCC(n4ccc5c(N6CCC(=O)NC6=O)cccc54)CC3)nc2)[C@@H](C)CN1c1ccc(C#N)c(Cl)c1 [EAR121, (2S,5R)-4-(3-chloro-4-cyanophenyl)-N-(6-(4-(4-(4-(2,4-dioxotetrahydropyrimidin-1(2H)-yl)-1H-indol-1-yl)piperidin-1-yl)butoxy)pyridin-3-yl)-2,5-dimethylpiperazine-1-carboxamide]	≥ 50%	
N#Cc1ccc(O[C@H]2CC[C@H](NC(=O)c3ccc(N4CCO[C@H](CN5CCC(n6ccc7c(N8CCC(=O)NC8=O)cccc76)CC5)C4)nn3)CC2)cc1Cl [EAR123, N-((1r,4R)-4-(3-Chloro-4-cyanophenoxy)cyclohexyl)-6-((R)-2-((4-(4-(2,4-dioxotetrahydropyrimidin-1(2H)-yl)-1H-indol-1-yl)piperidin-1-yl)methyl)morpholino)pyridazine-3-carboxamide]	≥ 50%	
N#Cc1ccc(O[C@H]2CC[C@H](NC(=O)c3ccc(N4CCO[C@@H](CN5CCC(n6ccc7c(N8CCC(=O)NC8=O)cccc76)CC5)C4)nn3)CC2)cc1Cl [EAR125, N-((1r,4S)-4-(3-Chloro-4-cyanophenoxy)cyclohexyl)-6-((S)-2-((4-(4-(2,4-dioxotetrahydropyrimidin-1(2H)-yl)-1H-indol-1-yl)piperidin-1-yl)methyl)morpholino)pyridazine-3-carboxamide]	≥ 50%	
N#Cc1ccc(O[C@H]2CC[C@H](NC(=O)c3ccc(CCN4CCC(n5ccc6c(N7CCC(=O)NC7=O)cccc65)CC4)cc3)CC2)cc1Cl [EAR130, N-((1r,4r)-4-(3-Chloro-4-cyanophenoxy)cyclohexyl)-4-(2-(4-(4-(2,4-dioxotetrahydropyrimidin-1(2H)-yl)-1H-indol-1-yl)piperidin-1-yl)ethyl)benzamide]	≥ 50%	
N#Cc1ccc(O[C@H]2CC[C@H](NC(=O)c3ccc(N4CCC(CN5CC(n6ccc7c(N8CCC(=O)NC8=O)cccc76)C5)CC4)nn3)CC2)cc1Cl [EAR131, N-((1r,4r)-4-(3-chloro-4-cyanophenoxy)cyclohexyl)-6-(4-((3-(4-(2,4-dioxotetrahydropyrimidin-1(2H)-yl)-1H-indol-1-yl)azetidin-1-yl)methyl)piperidin-1-yl)pyridazine-3-carboxamide]	≥ 50%	
C[C@@H]1CN(C(=O)Nc2ccc(N3CCC(CCN4CCC(n5ncc6c(N7CCC(=O)NC7=O)cccc65)CC4)CC3)nc2)[C@@H](C)CN1c1ccc(C#N)c(Cl)c1 [EAR132, (2S,5R)-4-(3-Chloro-4-cyanophenyl)-N-(6-(4-(2-(4-(4-(2,4-dioxotetrahydropyrimidin-1(2H)-yl)-1H-indazol-1-yl)piperidin-1-yl)ethyl)piperidin-1-yl)pyridin-3-yl)-2,5-dimethylpiperazine-1-carboxamide, formic acid salt]	≥ 50%	
C[C@@H]1CN(C(=O)Nc2ccc(N3CCC(CCN4CCC(n5ncc6c(N7CCC(=O)NC7=O)cncc65)CC4)CC3)nc2)[C@@H](C)CN1c1ccc(C#N)c(Cl)c1.O=CO [EAR133, (2S,5R)-4-(3-Chloro-4-cyanophenyl)-N-(6-(4-(2-(4-(4-(2,4-dioxotetrahydropyrimidin-1(2H)-yl)-1H-pyrazolo[3,4-c]pyridin-1-yl)piperidin-1-yl)ethyl)piperidin-1-yl)pyridin-3-yl)-2,5-dimethylpiperazine-1-carboxamide, formic acid salt]	≥ 50%	5.94
N#Cc1ccc(O[C@H]2CC[C@H](NC(=O)c3ccc(N4CCN(CC(=O)N5CCC(n6ccc7c(N8CCC(=O)NC8=O)cccc76)CC5)CC4)nn3)CC2)cc1Cl [EAR134, N-((1r,4r)-4-(3-Chloro-4-cyanophenoxy)cyclohexyl)-6-(4-(2-(4-(4-(2,4-dioxotetrahydropyrimidin-1(2H)-yl)-1H-indol-1-yl)piperidin-1-yl)-2-oxoethyl)piperazin-1-yl)pyridazine-3-carboxamide]	≥ 50%	
CC(C1CCN(c2ccc(C(=O)N[C@H]3CC[C@H](Oc4ccc(C#N)c(Cl)c4)CC3)nn2)CC1)N1CCC(n2ccc3c(N4CCC(=O)NC4=O)cncc32)CC1 (stereo partly drawn) [EAR135, N-((1r,4r)-4-(3-Chloro-4-cyanophenoxy)cyclohexyl)-6-(4-(1-(4-(4-(2,4-dioxotetrahydropyrimidin-1(2H)-yl)-1H-pyrrolo[2,3-c]pyridin-1-yl)piperidin-1-yl)ethyl)piperidin-1-yl)pyridazine-3-carboxamide]	≥ 50%	
C[C@@H]1CN(C(=O)Nc2ccc(N3CCC(CN4CCC(n5ncc6c(N7CCC(=O)NC7=O)cccc65)CC4)CC3)nc2)[C@@H](C)CN1c1ccc(C#N)c(Cl)c1 [EAR138, (2S,5R)-4-(3-Chloro-4-cyanophenyl)-N-(6-(4-((4-(4-(2,4-dioxotetrahydropyrimidin-1(2H)-yl)-1H-indazol-1-yl)piperidin-1-yl)methyl)piperidin-1-yl)pyridin-3-yl)-2,5-dimethylpiperazine-1-carboxamide, formic acid salt]	≥ 50%	
